Test results taken from paper PMC7128415 (Journal of Clinical Virology, 2004).
Values after ≈ are worked out from the molar mass of the structure shown. Like-named read-outs stand apart in the source and are kept apart here.

Columns and labels:
HIV-1 = settings: cited from earlier work
SARS coronavirus [1] = format: cell-based
[2] = human, in vivo, po
[3] = in vivo, cited from earlier work
SARS coronavirus [4] = test system: SARS coronavirus
in vitro = settings: rhesus monkey
SARS coronavirus [5] = test: microbe, parasite or virus in culture; settings: Severe acute respiratory syndrome coronavirus, FRhK-4, 48 h, read-out: EC50 at 48 h
SARS coronavirus [6] = test: microbe, parasite or virus in culture; format: cell-based; settings: Severe acute respiratory syndrome coronavirus, Vero, read-out: EC50 (plaque reduction assay)
[7] = test system: HIV-1 reverse transcriptase; settings: cited from earlier work
various viruses = settings: cited from earlier work
SARS-associated virus = settings: cited from earlier work
genital herpes = settings: in vivo; cited from earlier work
rhinovirus = settings: in vivo; cited from earlier work
CMV = settings: human, in vivo; cited from earlier work
[8] = test system: rhinovirus, coronavirus, and respiratory syncytial virus; settings: in vivo; cited from earlier work

O=C(O)[C@H]1O[C@@H](Oc2cc3oc(-c4ccccc4)cc(=O)c3c(O)c2O)[C@H](O)[C@@H](O)[C@@H]1O [Baicalin, baicalin]
Antiviral effect (HIV-1): Inhibition of HIV-1 | inhibition of HIV-1 (HIV-1): shown to inhibit HIV-1 | activity in Vero-E6 cell line compared with fRhK-4 (SARS coronavirus [1]): less active | serum concentration [2]: 470 ng/mL | Serum level (after oral administration), Cmax ([3]; human, po): Cmax = 60 ng/ml (189.8 mg per person, in human). The amount (i.e., 189.8 mg per person) used for the experiment is very low | Half life (in humans) ([3]; human): ∼3 h | Serum level (after intravenous administration), Cmax [3]: Cmax = 74 μg/ml (360 mg per person) | EC50 at 48 h (SARS coronavirus [4]): 12.5 µg/mL (≈ 28 µM) | SI = CC50/EC50 at 48 h (SARS coronavirus [4]): >4 to 8 | antiviral activities (SARS coronavirus [4]): detectable antiviral activities | antiviral activity (SARS coronavirus [4]): showed antiviral activity | inhibitory activities by neutralization tests (SARS coronavirus [4]): detectable inhibitory activities | CC50 (in vitro): > 100 µg/mL | EC50 (SARS coronavirus [5]): 12.5 to 25 µg/mL (≈ 28 to 56 µM) | EC50 (SARS coronavirus [6]): 11 µg/mL (≈ 24.6 µM) | inhibition of HIV-1 reverse transcriptase [7]: known to inhibit HIV-1 reverse transcriptase

O=C(/C=C/c1ccc(O)c(O)c1)O[C@@H]1C[C@](O)(C(=O)O)C[C@@H](O)[C@H]1O [Chlorogenic acid, chlorogenic acid]
Antiviral effect (various viruses): Inhibition of various viruses | Serum level (after intravenous administration), Cmax [3]: Cmax = 34 μg/ml (24 mg per person) | inhibitory activities in initial screening (SARS coronavirus [4]): not detectable

CC1(C)[C@@H](O[C@H]2O[C@H](C(=O)O)[C@@H](O)[C@H](O)[C@H]2O[C@@H]2O[C@H](C(=O)O)[C@@H](O)[C@H](O)[C@H]2O)CC[C@]2(C)[C@H]3C(=O)C=C4[C@@H]5C[C@@](C)(C(=O)O)CC[C@]5(C)CC[C@@]4(C)[C@]3(C)CC[C@@H]12 [Glycyrrhizin, glycyrrhizin]
activity in Vero-E6 cell line compared with fRhK-4 (SARS coronavirus [1]): more active | Antiviral effect (SARS-associated virus): Inhibition of SARS-associated virus | activity in Vero-E6 cell lines (SARS-associated virus): reported to be active | antiviral activity against SARS coronavirus (SARS-associated virus): significant antiviral activity | Half life (in humans) ([3]; human): ∼10 h | Serum level (after intravenous administration), Cmax [3]: Cmax = 80 μg/ml (200 mg per person) | antiviral activity (SARS coronavirus [4]): showed antiviral activity | inhibitory activities in initial screening (SARS coronavirus [4]): not detectable | CC50 (in vitro): > 400 µg/mL | EC50 (SARS coronavirus [5]): > 400 µg/mL

Cc1cccc(C)c1OCC(=O)N[C@@H](Cc1ccccc1)[C@@H](O)C[C@H](Cc1ccccc1)NC(=O)[C@H](C(C)C)N1CCCNC1=O [Lopinavir, lopinavir]
activity in Vero-E6 cell line compared with fRhK-4 (SARS coronavirus [1]): less active | antiviral activities (SARS coronavirus [4]): detectable antiviral activities | antiviral activity (SARS coronavirus [4]): showed antiviral activity | inhibitory activities by neutralization tests (SARS coronavirus [4]): detectable inhibitory activities | CC50 (in vitro): 32 µg/mL (≈ 50.9 µM) | EC50 (SARS coronavirus [5]): 1 to 4 µg/mL (≈ 1.59 to 6.36 µM) | EC50 (SARS coronavirus [6]): 6 µg/mL (≈ 9.54 µM)

NC(=O)c1ncn([C@@H]2O[C@H](CO)[C@@H](O)[C@H]2O)n1 [Ribavirin, ribavirin]
activity in Vero-E6 cell line compared with fRhK-4 (SARS coronavirus [1]): less active | SI = CC50/EC50 at 48 h (SARS coronavirus [4]): 5 to >80 | antiviral activities (SARS coronavirus [4]): detectable antiviral activities | antiviral activity (SARS coronavirus [4]): showed antiviral activity | inhibitory activities by neutralization tests (SARS coronavirus [4]): detectable inhibitory activities | CC50 (in vitro): > 1000 µg/mL | EC50 (SARS coronavirus [6]): 50 µg/mL (≈ 205 µM)

CC(N)C12CC3CC(CC(C3)C1)C2 (stereo not shown) [Rimantadine, rimantadine]
activity in Vero-E6 cell line compared with fRhK-4 (SARS coronavirus [1]): more active | EC50 at 48 h (SARS coronavirus [4]): 16 µg/mL (≈ 89.2 µM) | antiviral activities (SARS coronavirus [4]): detectable antiviral activities | antiviral activity (SARS coronavirus [4]): showed antiviral activity | inhibitory activities by neutralization tests (SARS coronavirus [4]): detectable inhibitory activities | CC50 (in vitro): 64 µg/mL (≈ 357 µM) | EC50 (SARS coronavirus [5]): 8 to 16 µg/mL (≈ 44.6 to 89.2 µM) | EC50 (SARS coronavirus [6]): 7 µg/mL (≈ 39 µM)

Nc1nc(NC2CC2)c2ncn([C@H]3C=C[C@@H](CO)C3)c2n1 [abacavir]
inhibitory activities in initial screening (SARS coronavirus [4]): did not reveal inhibitory activities

Nc1nc2c(ncn2COCCO)c(=O)[nH]1 [acyclovir]
inhibitory activities in initial screening (SARS coronavirus [4]): did not reveal inhibitory activities

NC12CC3CC(CC(C3)C1)C2 [amantadine]
inhibitory activities in initial screening (SARS coronavirus [4]): did not reveal inhibitory activities

C[C@H]1[C@H](OC(=O)CCC(=O)O)O[C@@H]2O[C@@]3(C)CC[C@H]4[C@H](C)CC[C@@H]1[C@@]24OO3 [artesunate]
inhibitory activities in initial screening (SARS coronavirus [4]): not detectable

Nc1ccn(C[C@@H](CO)OCP(=O)(O)O)c(=O)n1 [cidofovir]
inhibitory activities in initial screening (SARS coronavirus [4]): did not reveal inhibitory activities

O=C(O)P(=O)(O)O [foscarnet]
inhibitory activities in initial screening (SARS coronavirus [4]): did not reveal inhibitory activities

Nc1nc(O)c2ncn(COC(CO)CO)c2n1 [ganciclovir]
inhibitory activities in initial screening (SARS coronavirus [4]): did not reveal inhibitory activities

Cc1ccnc2c1NC(=O)c1cccnc1N2C1CC1 [nevirapine]
inhibitory activities in initial screening (SARS coronavirus [4]): did not reveal inhibitory activities

CC(C)c1nc(CN(C)C(=O)N[C@H](C(=O)N[C@@H](Cc2ccccc2)C[C@H](O)[C@H](Cc2ccccc2)NC(=O)OCc2cncs2)C(C)C)cs1 [ritonavir]
inhibitory activities in initial screening (SARS coronavirus [4]): did not reveal inhibitory activities

Cc1cn([C@H]2C=C[C@@H](CO)O2)c(=O)[nH]c1=O [stavudine]
inhibitory activities in initial screening (SARS coronavirus [4]): did not reveal inhibitory activities

Cc1cn([C@H]2C[C@H](N=[N+]=[N-])[C@@H](CO)O2)c(=O)[nH]c1=O [zidovudine]
inhibitory activities in initial screening (SARS coronavirus [4]): did not reveal inhibitory activities

interferon-alpha
reduction in symptoms or lesion duration of genital herpes (genital herpes): did not produce a consistent reduction | protection against rhinovirus-induced common cold (rhinovirus): protective | preventing CMV infections or treating CMV pneumonia (CMV): not effective | protection against experimental human infection [8]: protect

B1: Interferon-gamma: Interferon-gamma, reported in the literature (protein, UniProt P01579 24-161, looked up)
Interferon gamma: QDPYVKEAENLKKYFNAGHSDVADNGTLFLGILKNWKEESDRKIMQSQIVSFYFKLFKNFKDDQSIQKSVETIKEDMNVKFFNSNKKKRDDFEKLTNYSVTDLNVQRKAIHELIQVMAELSPAAKTGKRKRSQMLFRG
antiviral activity against SARS coronavirus (SARS-associated virus): not to possess antiviral activity
